Assay results from patent US10342796B2, “Acrylanilide derivative, preparation method, and applications thereof in pharmacy” (Ancureall Pharmaceutical (Shanghai) Co., Ltd., priority 2015, dated 2019).

Key:
Assay in all cases: Growth inhibition GI50 in vitro (CCK8/MTT, 72 h)
Format in all cases: cell-based, human
[1] = tested on: N87 (HER2 Amp); details: Homo sapiens; HER2 positive cell line; range of GI50; read-out: GI50 N87
[2] = tested on: SK-BR-3 (Her2 amp); details: Homo sapiens, SK-BR-3; HER2 positive cell line; range of GI50; read-out: GI50 SK-BR-3
[3] = tested on: PC-9 (EGFR dE746-A750); details: Homo sapiens; EGFR mutant cell line; range of GI50; read-out: GI50 PC-9
[4] = tested on: HCC827 (EGFR dE746-A750); details: Homo sapiens, HCC827; EGFR mutant cell line; range of GI50; read-out: GI50 HCC827
[5] = tested on: H1975 (EGFR L858R/T790M); details: Homo sapiens, NCI-H1975; EGFR mutant cell line; range of GI50; read-out: GI50 H1975
[6] = tested on: PC-9ER (EGFR delE746-A750/T790M); details: Homo sapiens, PC-9/ER; EGFR mutant cell line; range of GI50; read-out: GI50 PC9ER
[7] = tested on: AU565 (Her2 amp); details: Homo sapiens, AU565; HER2 positive cell line; range of GI50; read-out: GI50 AU-565
[8] = tested on: H460 (EGFR wt, Kras G61H); details: Homo sapiens, NCI-H460; EGFR wild type cell line; range of GI50; read-out: GI50 H460
[9] = tested on: A549 (EGFR WT); details: Homo sapiens, A549; EGFR wild type cell line; range of GI50; read-out: GI50 A549
[10] = tested on: A431 (EGFR WT, amplification and high expression); details: Homo sapiens, A-431; EGFR wild type cell line; range of GI50; read-out: GI50 A431
[11] = tested on: H1299 (EGFR wt, Nras Q61K); details: Homo sapiens, NCI-H1299; EGFR wild type cell line; range of GI50; read-out: GI50 H1299

Structure (SMILES)	GI50 [2]	GI50 [3]	GI50 [4]	GI50 [5]	GI50 [6]	GI50 [8]	GI50 [9]	GI50 [10]	GI50 [11]	GI50 [1]	GI50 [7]
C=CC(=O)Nc1cc(Nc2cc(-c3cn(C)c4ccccc34)ncn2)c(OC)cc1N1CCN(CCN2CCCC2)CC1 [Compound 165, N-(4-methoxyl-5-(6-(1-methyl-1H-indol-3-yl)-pyrimidin-4-ylamino)-2-(4-(2-(pyrrolidin-1-yl)-ethyl)-piperazin-1-yl)-phenyl)-acrylamide]	100 to 1000 nM	< 10 nM	10 to 100 nM	100 to 1000 nM	10 to 100 nM	> 1000 nM	> 1000 nM	10 to 100 nM	> 1000 nM	100 to 1000 nM	100 to 1000 nM
C=CC(=O)Nc1cc(Nc2cc(-c3cn(C)c4ccccc34)ncn2)c(OC)cc1N(C)CCN1CCCC1 [Compound 178, N-(4-methoxyl-5-(6-(1-methyl-1H-indol-3-yl)-pyrimidin-4-ylamino)-2-(methyl-(2-pyrrolidin-1-yl-ethyl)-amino)-phenyl)-acrylamide]	100 to 1000 nM	< 10 nM	< 10 nM	10 to 100 nM	10 to 100 nM	> 1000 nM	> 1000 nM	100 to 1000 nM	> 1000 nM	10 to 100 nM	100 to 1000 nM
C=CC(=O)Nc1cc(Nc2cc(-c3cn(C)c4cc(F)ccc34)ncn2)c(OC)cc1N(C)CCN(C)C [Compound 186, N-(4-methoxyl-5-(6-(6-fluoro-1-methyl-1H-indol-3-yl)-pyrimidin-4-ylamino)-2-(2-(dimethylamino-ethyl)-methyl-amino)-phenyl)-acrylamide]	10 to 100 nM	10 to 100 nM	10 to 100 nM	10 to 100 nM	10 to 100 nM	> 1000 nM	> 1000 nM	100 to 1000 nM	> 1000 nM	10 to 100 nM	10 to 100 nM
C=CC(=O)Nc1cc(Nc2cc(-c3cn(C4CCCC4)c4ccc(F)cc34)ncn2)c(OC)cc1N(C)CCN(C)C [Compound 193, N-(5-(6-(5-fluoro-1-cyclopentyl-1H-indol-3-yl)-pyrimidin-4-ylamino)-4-methoxyl-2-((2-dimethylamino-ethyl)-methyl-amino)-phenyl)-acrylamide]	> 1000 nM	< 10 nM	< 10 nM	10 to 100 nM	10 to 100 nM	> 1000 nM	> 1000 nM	> 1000 nM	> 1000 nM	100 to 1000 nM	100 to 1000 nM

Second part, led by results:

GI50 [2]	GI50 [3]	GI50 [4]	GI50 [5]	GI50 [6]	GI50 [8]	GI50 [9]	GI50 [10]	GI50 [11]	Structure (SMILES)	GI50 [1]	GI50 [7]
10 to 100 nM	< 10 nM	< 10 nM	10 to 100 nM	< 10 nM	> 1000 nM	> 1000 nM	100 to 1000 nM	> 1000 nM	C=CC(=O)Nc1cc(Nc2cc(-c3cn(CC)c4ccccc34)ncn2)c(OC)cc1N(C)CCN(C)C [Compound 181, N-{2-((2-dimethylamino-ethyl)-methylamino)-5-[6-(1-ethyl-1H-indol-3-yl)-pyrimidin-4-ylamino]-4-methoxyl-phenyl}-acrylamide]	10 to 100 nM	10 to 100 nM
10 to 100 nM	10 to 100 nM	10 to 100 nM	10 to 100 nM	10 to 100 nM	> 1000 nM	> 1000 nM	100 to 1000 nM	> 1000 nM	C=CC(=O)Nc1cc(Nc2cc(-c3cn(CCC)c4ccccc34)ncn2)c(OC)cc1N(C)CCN(C)C [Compound 182]	100 to 1000 nM	10 to 100 nM
< 10 nM	< 10 nM	< 10 nM	10 to 100 nM	< 10 nM	> 1000 nM	> 1000 nM	100 to 1000 nM	> 1000 nM	C=CC(=O)Nc1cc(Nc2cc(-c3cn(C)c4ccc(F)cc34)ncn2)c(OC)cc1N(C)CCN(C)C [Compound 188, N-(2-((2-dimethylamino-ethyl)-methylamino)-5-(6-(5-fluoro-1-methyl-1H-indol-3-yl)-pyrimidin-4-ylamino)-4-methoxyl-phenyl)-acrylamide]	10 to 100 nM	10 to 100 nM
